Laboratory results published in US20240199651A1, “ANTIBACTERIAL COMPOUNDS” (JANSSEN SCIENCES IRELAND UNLIMITED COMPANY, priority 2021, published 2024).
Where two headings read alike, the source gives them in different places.

What was measured:
[1] = Chemical stability testing (LCMS); type: physicochemical; settings: 30 µM
Description: • Add 3 μl of a 10 mM DMSO stock solution to 1 ml of the following solvents in a 1.5 ml HPLC vial. • DMSO (reference solution) • H2O/Acetonitril 1/1 (assay solution) • 0.1N HCl/Acetonitril 1/1 (assay solution) • Mix well, […] LCMS • Compare the chromatograms of the two assay solutions with the reference solution and report the additional peaks as degradation peaks

[2] = tested on: Mycobacterium tuberculosis strain EH4.0 expressing green-fluorescent protein (GFP); assay: microbe, parasite or virus in culture; type: cell-based
[3] = Mitochondrial toxicity (Glu/Gal) assay; type: cell-based; settings: for Δ IC50, glu/IC50, gal: ratio IC50 glu / IC50 gal; for Score: mitotoxicity score, Glu/Gal assay
Text: The compounds of the invention/examples may have advantages associated with in vitro potency, kill kinetics (i.e. bactericidal effect) in vitro, PK properties, food effect, safety/toxicity (including liver toxicity, coagulation, 5-LO oxygenase), metabolic stability, Ames II negativity, MNT negativity, aqueous based solubility (and ability to formulate) and/or cardiovascular effect e.g. on animals (e.g. anesthetized guinea pig). Data that is generated/calculated may be obtained using standard methods/assays, for instance that are available in the literature or which may be performed by a supplier (e.g. Microsomal Stability Assay—Cyprotex, Mitochondrial toxicity (Glu/Gal) assay—Cyprotex, as well as literature CYP cocktail inhibition assays). GSH can be measured (reactive metabolites, glucuronidation) to observe if a dihydrodiol is observed by LCMS (fragmentation ions), which would correspond to a dihydroxylation on the core heterocycle.

[4] = Mycobacterium tuberculosis, Test 1 (and/or Test 2), M. tuberculosis
[5] = galactose medium (Glu/Gal mitotoxicity assay), read-out: IC50, gal
[6] = glucose medium (Glu/Gal mitotoxicity assay), read-out: IC50, glu
[7] = Test 1 (and/or Test 2), M. tuberculosis

| Structure (SMILES) | IC50 ([3]; read-out: IC50, gal) [µM] | IC50 ([3]; read-out: IC50, glu) [µM] | IC50 [3, 5] [µM] | IC50 [3, 6] [µM] | Δ IC50, glu/IC50, gal [3] | further results |
| --- | --- | --- | --- | --- | --- | --- |
| CCc1nc2nc(N)c(Cl)cn2c1C(=O)NCc1ccc(-c2nc3n(n2)CCN(S(=O)(=O)C(F)(F)F)C3)c(F)c1 [Compound 12] | – | – | – | – | – | chemical stability, % by LCMS ([1]; 72 h): 96.14%; chemical stability, % by LCMS ([1]; 72 h, pH 1.6): 97.06% |
| CCc1nc2ncc(C)cn2c1C(=O)NCc1ccc(-c2nc3n(c2C)CCN(S(=O)(=O)C(F)(F)F)C3)cc1 [Compound 86] | > 100 | > 100 | – | – | – | AC50 [2, 4]: 0.03 µM |
| O=C(NCc1ccc(-c2nc3n(n2)CCN(S(=O)(=O)C(F)(F)F)C3)c(F)c1)c1c(C2CC2)nc2ccccn12 [Compound 123] | – | – | > 100 | > 100 | – | AC50 [2, 4]: 0.018 µM |
| CCc1nc2ncc(C)cn2c1C(=O)NCc1ccc(-c2nn3c(c2C)CN(S(=O)(=O)C(F)(F)F)CC3)c(F)c1 [Compound 87] | – | – | 25.4 | 85.8 | 3.38 | AC50 [2]: 0.036 µM |
| O=C(NCc1ccc(-c2cc3n(n2)CCN(S(=O)(=O)C(F)(F)F)C3)cc1)c1c(C2CC2)nc2ncc(Cl)cn12 [Compound 104] | – | – | > 50 | > 50 | – | AC50 [2, 4]: 0.11 µM |
| CCc1nc2ncc(C)cn2c1C(=O)NC1(c2ccc(-c3nc4n(n3)CCN(S(=O)(=O)C(F)(F)F)C4)cc2)CC1 [Compound 68] | > 100 | > 100 | – | – | – | IC50 [2, 4]: > 0.501 µM |
| CCc1nc2ncc(C)cn2c1C(=O)NCc1cccc(-c2cnn3c2CN(S(=O)(=O)C(F)(F)F)CC3)c1 [Compound 92] | 133 | 195 | – | – | 1.47 | AC50 [2, 4]: > 0.5 µM; Score [3]: [x]1 |
| Cc1cnc2nc(C3CC3)c(C(=O)NCc3ccc(-c4cn5c(n4)CN(S(=O)(=O)C(F)(F)F)CC5)c(F)c3)n2c1 [Compound 112] | – | – | > 100 | > 100 | – | AC50 [2, 4]: 0.0095 µM |
| CCc1nc2cc(N)c(Cl)cn2c1C(=O)NCc1ccc(-c2nc3n(n2)CCN(S(=O)(=O)C(F)(F)F)C3)c(F)c1 [Compound 14] | – | – | – | – | – | chemical stability, % by LCMS ([1]; 72 h): 100%; chemical stability, % by LCMS ([1]; 72 h, pH 1.6): 100% |
| CCc1nc2cc(NC)c(Cl)cn2c1C(=O)NCc1ccc(-c2nc3n(n2)CCN(S(=O)(=O)C(F)(F)F)C3)c(F)c1 [Compound 13] | 23.5 | 29.5 | – | – | 1.25 | IC50 [2, 4]: > 0.5 µM; Score [3]: [x]1 |
| CCc1nc2cc(OC)c(Cl)cn2c1C(=O)NCc1ccc(-c2nc3n(n2)CCN(S(=O)(=O)C(F)(F)F)C3)c(F)c1 [Compound 10] | > 200 | > 200 | – | – | – | chemical stability, % by LCMS ([1]; 72 h): 97.03%; chemical stability, % by LCMS ([1]; 72 h, pH 1.6): 100% |
| CCc1nc2ncc(C)cn2c1C(=O)NCc1coc(-c2nc3n(n2)CCN(S(=O)(=O)C(F)(F)F)C3)n1 [Compound 72] | > 200 | > 200 | – | – | – | IC50 [2, 4]: > 0.501 µM |
| CCc1nc2ncc(C)cn2c1C(=O)NCc1ccc(-c2nn3c(c2OC)CN(S(=O)(=O)C(F)(F)F)CC3)cc1 [Compound 88] | – | – | – | – | – | AC50 [2, 7]: 0.00866 µM |
| O=C(NCc1ccc(-c2nc3n(n2)CCN(S(=O)(=O)C(F)(F)F)C3)c(F)c1)c1c(C(F)(F)F)nc2ccccn12 [Compound 6] | 134 | 88.5 | – | – | 0.66 | chemical stability, % by LCMS ([1]; 48 h): 100%; chemical stability, % by LCMS ([1]; 48 h, pH 1.6): 100%; Score [3]: [x]1 |
| CCc1nc2nc(C)c(Cl)cn2c1C(=O)NCc1ccc(-c2nc3n(n2)CCN(S(=O)(=O)C(F)(F)F)C3)cc1 [Compound 8] | – | – | 41.7 | 51.2 | 1.23 | pIC50 [2, 7]: 7.58; Score [3]: [x]1 |
| CCc1nc2ncc(Cl)cn2c1C(=O)NCc1ccc(-c2nc3n(n2)CCN(S(=O)(=O)C(F)(F)F)C3)c(F)c1 [Compound 4] | – | – | > 100 | > 100 | – | pIC50 [2, 7]: 7.90 |
| CCc1nc2ncc(C)cn2c1C(=O)NCc1ccc(C2CN(c3nc4n(n3)CCN(S(=O)(=O)C(F)(F)F)C4)C2)cc1 [Compound 58] | 58.2 | > 200 | – | – | >3.44 | – |
| Cc1cnc2nc(C3CC3)c(C(=O)NCc3ccc(-c4cc5n(n4)CCN(S(=O)(=O)C(F)(F)F)C5)nc3)n2c1 [Compound 128] | – | – | > 200 | > 200 | – | – |
| CCc1nc2ncc(C3CC3)cn2c1C(=O)NCc1ccc(-c2nc3n(n2)CCN(S(=O)(=O)C(F)(F)F)C3)cc1 [Compound 28] | > 200 | > 200 | – | – | – | – |
| Cc1cnc2nc(C3CC3)c(C(=O)NCc3ccc(-c4nn5c(c4C)CN(S(=O)(=O)C(F)(F)F)CC5)cc3)n2c1 [Compound 102] | 29.9 | > 200 | – | – | >6.69 | Score [3]: [x]3 |
| CCc1nc2nc(C)c(C)cn2c1C(=O)NCc1ccc(-c2nc3n(n2)CCN(S(=O)(=O)C(F)(F)F)C3)cc1 [Compound 33] | > 200 | 196 | – | – | <0.98 | Score [3]: [x]1 |

| Structure (SMILES) | IC50 ([3]; read-out: IC50, gal) [µM] | IC50 ([3]; read-out: IC50, glu) [µM] | IC50 [3, 5] [µM] | IC50 [3, 6] [µM] | Δ IC50, glu/IC50, gal [3] | further results |
| --- | --- | --- | --- | --- | --- | --- |
| CCc1nc2ncc(C)cn2c1C(=O)NCc1cccc(Cc2cc3n(n2)CCN(S(=O)(=O)C(F)(F)F)C3)c1 [Compound 95] | 117 | > 200 | – | – | >1.7 | Score [3]: [x]1 |
| Cc1cnc2nc(C3CC3)c(C(=O)NCc3ccc(-c4nc5n(n4)CCN(S(=O)(=O)C(F)(F)F)C5)c(F)c3)n2c1 [Compound 97] | – | – | > 25 | > 25 | – | – |
| CCc1nc2ncc(C)cn2c1C(=O)NCc1ccc(N2CCN(c3nc4n(n3)CCN(S(=O)(=O)C(F)(F)F)C4)CC2)cc1 [Compound 70] | > 50 | > 50 | – | – | – | – |
| CCc1nc2c(F)cc(Cl)cn2c1C(=O)NCc1ccc(-c2nc3n(n2)CCN(S(=O)(=O)C(F)(F)F)C3)cc1 [Compound 21] | 59.4 | 97.9 | – | – | 1.65 | Score [3]: [x]1 |
| CCc1nc2ncc(C)cn2c1C(=O)NCc1ccc(-c2nc3n(n2)CCN(S(=O)(=O)N(C)C)C3)cc1 [Compound 41] | – | – | > 200 | > 200 | – | – |
| O=C(NCc1ccc(-c2cn3c(n2)CN(S(=O)(=O)C(F)(F)F)CC3)cc1)c1c(C(F)F)nc2ccccn12 [Compound 116] | 20.1 | > 200 | – | – | >9.96 | Score [3]: [x]3 |
| CCc1nc2ccc(C)cn2c1C(=O)NCc1ccc(-c2nc3n(n2)CCN(S(=O)(=O)N(C)C)C3)cc1 [Compound 51] | – | – | > 200 | > 200 | – | – |
| CCc1nc2n(c1C(=O)NCc1ccc(-c3nc4n(n3)CCN(S(=O)(=O)C(F)(F)F)C4)cc1)CCN(C)C2 [Compound 65] | – | – | > 200 | > 200 | – | – |
| O=C(NCc1ccc(-c2cc3n(n2)CCN(S(=O)(=O)C(F)(F)F)C3)cc1)c1c(C(F)(F)F)nc2ccccn12 [Compound 119] | 130 | > 200 | – | – | >1.54 | Score [3]: [x]1 |
| CCc1nc2ccc(Cl)cn2c1C(=O)NCc1ccc(-c2cn3c(n2)CN(S(=O)(=O)C(F)(F)F)CC3)cc1 [Compound 117] | – | – | > 50 | > 50 | – | – |
| COCCN1CCn2nc(-c3ccc(CNC(=O)c4c(C5CC5)nc5ncc(C)cn45)cc3)cc2C1 [Compound 101] | – | – | > 200 | > 200 | – | – |
| CCc1nc2ncc(C)cn2c1C(=O)NCc1cnc(-c2cc3n(n2)CCN(S(=O)(=O)C(F)(F)F)C3)nc1 [Compound 131] | – | – | > 100 | > 100 | – | – |
| CCc1nc2ncc(Cl)cn2c1C(=O)NCc1ccc(-c2cn3c(n2)CN(S(=O)(=O)C(F)(F)F)CC3)cc1 [Compound 90] | – | – | > 200 | > 200 | – | – |
| CCc1nc2ccc(C)cn2c1C(=O)NCc1ccc(-c2nc3n(n2)CCN(C(C)=O)C3)cc1 [Compound 46] | – | – | > 200 | > 200 | – | – |
| CCc1nc2ncc(C)cn2c1C(=O)NCc1ccc(C2CCN(c3nc4n(n3)CCN(S(=O)(=O)C(F)(F)F)C4)CC2)cc1 [Compound 59] | 17.6 | > 200 | – | – | >11.38 | Score [3]: [x]3 |
| CCc1nc2ncc(C)cn2c1C(=O)NCc1ccc(-c2cc3n(n2)CCN(S(=O)(=O)C(F)(F)F)C3)cn1 [Compound 126] | – | – | > 200 | > 200 | – | – |
| CCc1nc2ccc(C3CC3)cn2c1C(=O)NCc1ccc(-c2nc3n(n2)CCN(S(=O)(=O)C(F)(F)F)C3)cc1 [Compound 27] | 44.5 | 104 | – | – | 2.34 | – |
| Cc1cnc2nc(C3CC3)c(C(=O)NCc3cnc(-c4nc5n(n4)CCN(S(=O)(=O)C(F)(F)F)C5)c(F)c3)n2c1 [Compound 130] | – | – | > 200 | > 200 | – | – |
| Cc1ccc2nc(C)c(C(=O)NCc3ccc(-c4nc5n(n4)CCN(S(=O)(=O)C(F)(F)F)C5)cc3)n2c1 [Compound 34] | 44.2 | > 50 | – | – | >1.13 | Score [3]: [x]0 |
| CC(=O)N1CCn2nc(-c3ccc(CNC(=O)c4c(C5CC5)nc5ncc(C)cn45)cc3)cc2C1 [Compound 96] | – | – | > 200 | > 200 | – | – |
| COCCS(=O)(=O)N1CCn2nc(-c3ccc(CNC(=O)c4c(C5CC5)nc5ncc(C)cn45)cc3)cc2C1 [Compound 109] | – | – | > 50 | > 50 | – | – |
